Test results from patent US20250032581A1, “COMPOSITIONS AND ARTICLES COMPRISING AN ADNF POLYPEPTIDE” (RAMOT AT TEL-AVIV UNIVERSITY LTD., priority 2021, published 2025).

Experiments:
Assay type in all cases: cell-based, mouse
[1] = test system: Tau-MT interaction in differentiated N1E-115 cells; experiment: Fluorescence recovery after photobleaching (FRAP) of mCherry-Tau; conditions: zinc 400 μM, 1 h; peptide 10^−12M
Procedure: (§1) Cell culture—Mouse neuroblastoma NIE-115 cells were maintained in Dulbecco's modified Eagle's medium, 10% fetal bovine serum, 2 mM glutamine and 100 U ml-1 penicillin, 100 mg ml-1 streptomycin (Biological Industries, Beit Haemek, Israel). The cells were incubated in 9 5% air/5% CO2 in a humidified incubator at 37° C.
(§2) Cell differentiation and co-transfection of overexpression plasmids—Cultured NIE-115 cells were plated on 35 mm dishes (81156, 60 p-Dish, Ibidi, Martinsried, Germany) at a concentration of 1.25×10^4 cells per dish and then were differentiated with reduced fetal bovine serum (2%) and DMSO (1.25%) containing medium for 5 days before transfection. 48 hrs before experiments N1E-115 cells were co-transfected with 1 μg EB3-RFP or mCherry-Tau (3R) plasmid with or without 2 μg of plasmids, coding to GFP conjugated to full-length human ADNP, or ADNP carried mutations. 1:3 ratios between total amount of transfected DNA and transfection reagent were used according to manufacture guidance (Lipofectamine2000, Thermo Fisher Scientific, Waltham, MA, USA) in all subsequent experiments.
Fluorescence recovery after photobleaching (FRAP)—Differentiated NIE-115 cells were transfected with mCherry-Tau with or without GFP-conjugated to full-length ADNP or mutated ADNP, and imaged 48 hrs after transfection. An ROI for photobleaching was drowned in the proximal cell branches. mCherry-Tau was bleached with a […], and fluorescence recovery was collected within wavelengths of 610-650 nm. 80 images were taken every 0.74 sec immediately after bleaching. After FRAP imaging all samples were also treated with NAP in final concentrations of 10^−12M, and after 4 hrs time-lapse imaging was done again under the same conditions. FRAP imaging for assessment difference between NAP and SKIP (SEQ ID NO: 21) activity was performed after an hour of ZnCl2 treatment (400 μM final concentration; Sigma, Rehovot, Israel) with or without NAP/SKIP (10^−12M final concentration). Fluorescence signals were quantified with Fiji, obtained data were normalized with easyFRAP [82, 83] and FRAP recovery curves were fitted by a one-phase exponential association function by GraphPad Prism6 (GraphPad Software, Inc., La Jolla, CA, USA) while samples with R^2<0.9 were excluded.
Next, the effect of full-length/truncated ADNP forms with or without NAP treatment on Tau-MT interaction was examined by fluorescence recovery after photobleaching (FRAP) (FIGS. 8A-C). FRAP was performed with mCherry-tagged Tau protein (FIG. 8A). […] Therefore, the immobile mCherry-Tau fraction reflects the rate of Tau association with MTs.

Tau, tubulin = experiment: Polymerized vs. soluble tubulin assay; conditions: zinc 400 μM, 4 h, peptide 10^−12M
Procedure: Polymerized vs. soluble tubulin assay—To quantify tubulin polymerization and Tau-MT association, a simple assay was performed as previously described. The cells grown to confluence in six-well plates were washed with MT buffer (80 mM PIPES pH 6.8, 1 mM MgCl^2, 2 mM EGTA, 5% Glycerol) and lysed at room temperature for 5 min through centrifugation (300 g), with 150 μl of MT buffer with 0.5% Triton X-100 to extract soluble (cytosolic) tubulin (S). The pelleted cells were rinsed once again with an equal volume of modified RIPA lysis buffer (50 mM Tris-HCL pH 7.4, 150 mM NaCl, 2 mM EGTA, 1% Triton X-100, 0. 1% SDS, 0.1% sodium Deoxycholate) to collect the polymerized (cytoskeletal) tubulin (P). The cytosolic and cytoskeletal fractions were each mixed with sample buffer and heated at 95° C. for 5 min. An equal volume of each fraction was analyzed by immunoblotting with Tau, tubulin and actin antibodies, and the results following ECL development were quantified by densitometry (GelQuant.NET software provided by biochemlabsolutions(dot)com).
It is known that in the presence of extracellular zinc NAP protects MT against degradation by promoting Tau binding to the MT shaft. Polymerized vs. soluble tubulin assay was effected to compare protective activities of NAP and SKIP against MT degradation and Tau-MT dissociation (FIGS. 11F-G). After treatments with zinc (400 μM, 4 h) with and without NAP or SKIP (10^−12M, 4 h) the cellular-tubulin pool was separated into polymerized and soluble tubulin fractions. The amount of Tau, tubulin, and actin was identified by immunoblotting (FIG. 11F), followed by densitometric quantification (FIG. 11G).

[2] = test system: differentiated N1E-115 cells expressing RFP-tagged EB3; experiment: Live imaging of EB3 comet-like structures (MT dynamics); conditions: 10^−12M, 4 hrs, vs. non-treated control; no significant differences between NAP and SKIP
From the text: Plasmid construction—Protein expressing plasmids were constructed as previously described based on pEGFP-C1 backbone and express full-length ADNP or the following truncated ADNP proteins: p.Glu830synfs*83, p.Lys408Valfs*31, p.Ser404* (as before). Inserts of cDNA carrying unique mutations were obtained from mRNA extracted from patient-derived lymphoblastoid cell lines and cDNA with full-length human ADNP was obtained from a control lymphoblastoid cell line with no mutation. Protein expressions were verified by fluorescent imaging and immunoblotting analysis as before.
as §1, §2
Live Imaging—48 hrs after transfection, differentiated NIE-115 cells (expressing EB3-RFP with or without GFP-conjugated to full-length ADNP or mutated ADNP) were incubated at 37° C. with a 5% CO2/95% air mixture in a thermostatic chamber placed on the stage of a Leica TCS SP5 confocal microscope (objective 100× (PL Apo) oil immersion, NA 1.4). Time-lapse images were automatically captured 3 sec during 1 min, using the Leica LAS AF software. After imaging all samples were also treated with NAP (SEQ ID NO: 2) or SKIP (SEQ ID NO: 21) in final concentrations of 10^−12M, and after 4 hrs time-lapse imaging was done again under the same conditions. Data was collected and analyzed by Imaris software.
To evaluate the effect of ADNP truncated proteins on MT dynamics time-lapse imaging of EB3 comet-like structures formed by RFP-tagged EB3 proteins that bind to MT plus-ends was performed. Two parameters of EB3 activity were used to assess MT dynamics—track length and track speed of EB3 comets, which reflect the length of freshly growing MTs and the speed of MT assembly, respectively. Furthermore, the present inventors aimed to determine whether NAP ([…] for 4 hrs) could prevent the deleterious effect of ADNP mutations.

Substance: SKIP
- Tau immobile fraction (Tau-MT interaction) in the presence of zinc [1]: prevented zinc adverse effect
- protection against Tau dissociation from MTs (soluble Tau ratio) (Tau, tubulin): only NAP exhibited protection against Tau dissociation from MTs
- protection of polymerized tubulin against zinc (Tau, tubulin): protected against zinc-induced decay
- EB3 track length and speed [2]: increased EB3 track length and speed
